Measured values reported in patent US20240000791A1, “Methods of Using 4-Amino-N-[4-(Methoxymethyl)Phenyl]-7-(1-Methylcyclopropyl)-6-(3-Morpholinoprop-1-YN-1-YL)-7H-Pyrrolo[2,3-D]Pyrimidine-5-Carboxamide for the Treatment of Tumors” (Helsinn Healthcare SA, priority 2020, published 2024).

Assays:
[1] = CNS symptoms and neurotoxicity (Fluoro-Jade C, ATF3) in dog toxicity studies; assay type: in vivo
Protocol: In order to evaluate the potential neurotoxic effect of HM06-01, Fluoro-Jade C staining was performed on nine different brain areas (i.e., frontal pole, optic chiasm, infundibulum, mammillary bodies, base of third cranial nerve, anterior portion of pons and occipital pole section, cerebellum and medulla oblongata) of control dogs and dogs treated with 45 mg/kg BID HM06-01/TAS0953-01 (samples were taken from the 2-week toxicity study in dogs). In addition, ATF3 immunostaining was performed only on one control and one high dose dog treated with 45 mg/kg BID, in order to validate with an alternative method, the absence of any signs of neuronal degeneration or suffering.

[2] = ECG and blood pressure, 2-week toxicology GLP study; assay type: in vivo, dog; conditions: for mean arterial blood pressure: high dose females
Protocol: The effect of HM06-01/TAS0953-01 on the ECG was investigated in the 2-week toxicology GLP study in dog as described above on Day 12. […] Heart rate and ECG were also not affected at all dose levels tested. […] At +8 h, arterial blood pressure had returned to control/baseline levels. Although this decrease was not statistically significant versus control, it was consistent and noticeable enough to be considered test item related. Nevertheless, since the extent of the change was limited and present only in the high dose females, and as this decrease in blood pressure had no negative impact on the animals' health, it was considered as non-adverse.

[3] = ECG, 4-week toxicology GLP study; assay type: in vivo, dog
Protocol: The effect of HM06-01/TAS0953-01 on the ECG was also investigated in the 4-week toxicology GLP study in dog as described above (and further described in Example 8) on week 1 (Day 2), week 4 (Day 23) and at the end of the 2-week recovery period. […] Whereas, on Day 23, no test item-related effects were noted on electrocardiographic parameters at 15 and 30 mg/kg BID in males. […] These electrocardiographic effects were no longer observed at the end of the 2 week recovery period. In addition, there were no abnormalities in electrocardiogram rhythm and waveforms on Day 2 and Day 23, and at the end of the recovery period.

[4] = Respiratory system, 4-week GLP study; assay type: in vivo, rat; conditions: 25, 50 and 90 mg/kg BID, week 4
Protocol: The effect of HM06-01/TAS0953-01 on the respiratory system was also investigated after repeated administration with HM06-01/TAS0953-01 at 25, 50 and 90 mg/kg BID in the 4-week GLP study in rats further described in Example 8. Each group comprised 5 animals/group/sex.

[5] = 4-week GLP toxicity study in rat; assay type: in vivo; conditions: for AUC(0-t): 50 mg/kg, 50 mg/kg BID
Protocol: In the 4-week GLP toxicity study in rat, animals received 0, 25, 50, and 90 mg/kg BID HM06-01/TAS0953-01 by oral gavage. In the high dose of 90 mg/kg BID group, test item-related mortality was observed: 3 females were found dead or were prematurely sacrificed for ethical reasons (severe clinical signs like decreased activity, abnormal respiratory rate and erected fur) from Day 10 to Day 14. At necropsy, discolorations of the lungs were generally observed, histologically correlated with adverse moderate to marked inflammatory changes in the lungs (alveolar/perivascular inflammation, macrophages aggregates, alveolar oedema/hemorrhage). One additional female (satellite) was found dead on Day 7 before dosing. However, in absence of clinical sign and of abnormality at necropsy, the relationship with the test item administration was considered doubtful.

[6] = 4-week GLP toxicity study in dog; assay type: in vivo; conditions: for AUC(0-t): beagle, dog, in vivo, po, 30 mg/kg, 30 mg/kg BID
Protocol: In the 4-week GLP toxicity study in dog, animals received 0, 15, 30, and 45 mg/kg BID HM06-01/TAS0953-01 by oral gavage for 4 consecutive weeks followed by 2-week recovery period. In the high dose of 45 mg/kg BID group, test item-related mortality was observed: 2 males were prematurely sacrificed on Day 17 and Day 18 for ethical reasons (severe clinical signs associated with a significant body weight loss). The main cause of death was the mild to moderate multifocal subacute inflammation with alveolar or bronchioalveolar distribution, accompanied in one male with alveolar foreign body granulomas. In the other male, minimal pancreatic acinar vacuolation/apoptosis with prostatic acinar apoptosis were noted, for which the relationship with test item cannot be excluded.

[7] = Proconvulsant and anticonvulsant effects (pentylenetetrazole)
[8] = tested on: cell line from a patient who acquired resistance to RXDX-105 (KIF5B-RET fusion); assay: Growth inhibition, RXDX-105-resistant cell line; assay type: cell-based; conditions: Homo sapiens; RXDX-105-resistant, KIF5B-RET; read-out: IC50 growth inhibition

COCc1ccc(NC(=O)c2c(C#CCN3CCOCC3)n(C3(C)CC3)c3ncnc(N)c23)cc1 [HM06-01/TAS0953-01, 4-amino-N-(4-(methoxymethyl)phenyl)-7-(1-methylcyclopropyl)-6-(3-morpholinoprop-1-yn-1-yl)-7H-pyrrolo[2,3-d]pyrimidine-5-carboxamide]
neuronal degeneration (Fluoro-Jade C, ATF3) ([1]; 45 mg/kg BID, 2-week toxicity study, brain areas): no evidence of any neuronal degeneration
dose at which CNS symptoms were seen ([1]; after the first administration in PK studies): ≥ 5 mg/kg BID
dose at which CNS symptoms were seen ([1]; after the first daily dose, routine clinical observations, 2-week and 4-week toxicity studies): ≥ 15 mg/kg BID
QT prolongation ([2]; 15, 30 and 45 mg/kg BID, Day 12): No evidence of QT prolongation
heart rate and ECG ([2]; all dose levels tested): not affected
mean arterial blood pressure ([2]; 1 hour after the second daily dose, vehicle 115): 93 mmHg
mean arterial blood pressure ([2]; 5 hours after the first daily dosing, vehicle 127): 91 mmHg
ECG effects ([3]; Day 2, two hours after second daily dose, 15, 30 and 45 mg/kg BID): no effects
prolongation of Fridericia and Van der Water corrected QTc interval versus control ([3]; Day 23, females, 15, 30 and 45 mg/kg): up to 8%
heart rate ([3]; Day 23, males, 45 mg/kg BID): slight increase in heart rate
respiratory parameters [4]: Neither toxicologically relevant effects in respiratory parameters were observed at week 4
test item-related mortality ([5]; 90 mg/kg BID, Day 10 to Day 14): 3 females
decrease of body weight ([5]; 90 mg/kg BID, both sexes): 10%
severely toxic dose 10 (STD 10) ([5]; 4-week, oral gavage): 50 mg/kg BID
ophthalmology ([5]; 4 weeks oral BID): no change in ophthalmology
systemic exposure vs dose ([5]; 25-90 mg/kg BID): approximately dose proportional manner
body weight ([5]; 25 and 50 mg/kg BID): no effect on body weight
systemic accumulation ([5]; Day 28): no systemic accumulation
clinical chemistry, AST and ALT ([5]; both sexes): dose-dependent increase in AST and ALT
hematology, reticulocytes ([5]; both sexes): dose-dependent increase in reticulocytes
urine protein concentration ([5]; both sexes): dose-dependent increase in urine protein concentration
microscopic findings ([5]; end of dosing period): inflammatory microscopic findings were noted in the lungs
AUC(0-t) ([5]; female, rat, in vivo, po, Day 1, females): 37200 ng·h/mL
AUC(0-t) ([5]; female, rat, in vivo, po, Day 28, females): 74300 ng·h/mL
AUC(0-t) ([5]; male, rat, in vivo, po, Day 1, males): 50300 ng·h/mL
AUC(0-t) ([5]; male, rat, in vivo, po, Day 28, males): 73000 ng·h/mL
Tmax ([5]; rat, in vivo, po, Day 1, after the first daily dose): 7 h
Tmax ([5]; rat, in vivo, po, Day 28, after the first daily dose): 1 h
half-life ([5]; rat, in vivo, po, after the second daily dose, when estimable): 2.03 to 3.67 h
test item-related mortality ([6]; 45 mg/kg BID, Day 17 and Day 18): 2 males
body weight loss ([6]; 45 mg/kg BID, Male No. 642, day 17): −12%
body weight loss ([6]; 45 mg/kg BID, Male No. 644, day 15): −25%
highest non severely toxic dose (HNSTD) ([6]; 4-week, oral gavage): 30 mg/kg BID
ophthalmology, urinalysis, coagulation, clinical chemistry ([6]; 4 weeks oral BID): no change in ophthalmology, urinalysis and on coagulation and clinical chemistry parameters
hematology, total white blood cell count ([6]; both sexes): increase in total white blood cell count
microscopic findings ([6]; end of dosing period): inflammatory microscopic findings in the lungs
AUC(0-t) ([6]; female, Day 1, females): 29200 ng·h/mL
AUC(0-t) ([6]; female, Day 28, females): 29100 ng·h/mL
dose at which test item-related clinical signs were noted ([6]; from Day 1): ≥ 15 mg/kg BID
body weight ([6]; low dose): no effect on body weight
AUC(0-t) ([6]; male, Day 1, males): 21400 ng·h/mL
AUC(0-t) ([6]; male, Day 28, males): 22300 ng·h/mL
proconvulsant activity ([7]; 30, 100 and 200 mg/kg oral, 1 hour prior to 25 mg/kg PTZ): did not demonstrate any proconvulsant activity
anticonvulsant effect, total number of convulsions ([7]; 100 and 200 mg/kg oral, pentylenetetrazole): decrease in the total number of convulsions

COc1cc2nccc(Oc3ccc(NC(=O)C4(C(=O)Nc5ccc(F)cc5)CC4)cc3)c2cc1OC [cabozantinib, reference compound]
IC50 [8]: 340 nM
